# Laboratory results as given in ChEMBL document CHEMBL1141727, “Isolation and cytotoxic evaluation of marine sponge-derived norterpene peroxides” (J Nat Prod, 1998).
# Key:
# Assay type in all cases: functional
# [1] = system: HL-60(TB); assay: Growth inhibition of human HL-60(TB) cells
# [2] = system: MOLT-4; assay: Growth inhibition of human MOLT4 cells
# [3] = system: A549; assay: Growth inhibition of human A549 cells
# [4] = system: EKVX; assay: Growth inhibition of human EKVX cells
# [5] = system: HOP-62; assay: Growth inhibition of human HOP62 cells
# [6] = system: HOP-92; assay: Growth inhibition of human HOP92 cells
# [7] = system: NCI-H226; assay: Growth inhibition of human NCI-H226 cells
# [8] = system: NCI-H23; assay: Growth inhibition of human NCI-H23 cells
# [9] = system: NCI-H322M; assay: Growth inhibition of human NCI-H322M cells
# [10] = system: NCI-H460; assay: Growth inhibition of human NCI-H460 cells
# [11] = system: COLO 205; assay: Growth inhibition of human COLO205 cells
# [12] = system: HCC 2998; assay: Growth inhibition of human HCC2998 cells
# [13] = system: HCT-116; assay: Growth inhibition of human HCT116 cells
# [14] = system: HCT-15; assay: Growth inhibition of human HCT15 cells
# [15] = system: HT-29; assay: Growth inhibition of human HT-29 cells
# [16] = system: KM12; assay: Growth inhibition of human KM12 cells
# [17] = system: SW-620; assay: Growth inhibition of human SW620 cells
# [18] = system: SF-268; assay: Growth inhibition of human SF268 cells
# [19] = system: SF-295; assay: Growth inhibition of human SF295 cells
# [20] = system: SF-539; assay: Growth inhibition of human SF539 cells
# [21] = system: SNB-19; assay: Growth inhibition of human SNB19 cells
# [22] = system: SNB-75; assay: Growth inhibition of human SNB75 cells
# [23] = system: U-251; assay: Growth inhibition of human U251 cells
# [24] = system: LOX IMVI; assay: Growth inhibition of human LOXIMVI cells
# [25] = system: M14; assay: Growth inhibition of human M14 cells
# [26] = system: SK-MEL-2; assay: Growth inhibition of human SK-MEL-2 cells
# [27] = system: SK-MEL-28; assay: Growth inhibition of human SK-MEL-28 cells
# [28] = system: SK-MEL-5; assay: Growth inhibition of human SK-MEL-5 cells
# [29] = system: UACC-257; assay: Growth inhibition of human UACC257 cells
# [30] = system: IGROV-1; assay: Growth inhibition of human IGROV1 cells
# [31] = system: OVCAR-3; assay: Growth inhibition of human OVCAR-3 cells
# [32] = system: OVCAR-4; assay: Growth inhibition of human OVCAR4 cells
# [33] = system: OVCAR-5; assay: Growth inhibition of human OVCAR5 cells
# [34] = system: OVCAR-8; assay: Growth inhibition of human OVCAR8 cells
# [35] = system: SK-OV-3; assay: Growth inhibition of human SKOV3 cells
# [36] = system: 786-0; assay: Growth inhibition of human 786-0 cells
# [37] = system: A498; assay: Growth inhibition of human A498 cells
# [38] = system: ACHN; assay: Growth inhibition of human ACHN cells
# [39] = system: CAKI-1; assay: Growth inhibition of human Caki1 cells
# [40] = system: RXF 393; assay: Growth inhibition of human […] cells
# [41] = system: SN12C; assay: Growth inhibition of human SN12C cells
# [42] = system: TK-10; assay: Growth inhibition of human TK10 cells
# [43] = system: UO-31; assay: Growth inhibition of human UO31 cells
# [44] = system: PC-3; assay: Growth inhibition of human PC3 cells
# [45] = system: MCF7; assay: Growth inhibition of human MCF7 cells
# [46] = Growth inhibition of human MCF7/ADR resistant cells; details: NCI/ADR-RES
# [47] = system: MDA-MB-231; assay: Growth inhibition of human MDA-MB-231 cells
# [48] = system: MDA-MB-435; assay: Growth inhibition of human MDA-MB-435 cells
# [49] = system: MDA-N; assay: Growth inhibition of human MDA-N cells
# [50] = system: BT-549; assay: Growth inhibition of human BT549 cells
# [51] = system: T47D; assay: Growth inhibition of human T47D cells
# [52] = system: L1210; assay: Growth inhibition of mouse L1210 cells assessed as zone units at 50 ug/disk by disk diffusion agar colony formation assay
# [53] = system: P388; assay: Growth inhibition of mouse P388 cells assessed as zone units at 50 ug/disk by disk diffusion agar colony formation assay
# [54] = system: PO3; assay: Growth inhibition of mouse PO3 cells assessed as zone units at 50 ug/disk by disk diffusion agar colony formation assay
# [55] = system: MC-38; assay: Growth inhibition of mouse C38 cells assessed as zone units at 50 ug/disk by disk diffusion agar colony formation assay
# [56] = Growth inhibition of mouse M17/ADR cells assessed as zone units at 50 ug/disk by disk diffusion agar colony formation assay
# [57] = system: CX-1; assay: Growth inhibition of human CX-1 cells assessed as zone units at 50 ug/disk by disk diffusion agar colony formation assay
# [58] = Growth inhibition of human H116 cells assessed as zone units at 50 ug/disk by disk diffusion agar colony formation assay
# [59] = system: CCRF-CEM; assay: Growth inhibition of human CCRF-CEM cells
# [60] = Growth inhibition of human […] cells
# [61] = system: SR; assay: Growth inhibition of human SR cells
# [62] = system: NCI-H522; assay: Growth inhibition of human NCI-H522 cells
# [63] = system: Malme-3M; assay: Growth inhibition of human MALME-3M cells
# [64] = system: UACC-62; assay: Growth inhibition of human UACC62 cells
# [65] = system: DU-145; assay: Growth inhibition of human DU145 cells
# [66] = Growth inhibition of human Hs 578T cells
structure (smiles),measurement,setting,value
CC1=C(CC/C(C)=C/CC[C@@]2(C)CC[C@H]([C@H](C)C(=O)O)OO2)C(C)(C)CCC1,GI50,[1],1.77 µM
same,GI50,[2],> 5 µM
same,GI50,[3],> 5 µM
same,GI50,[4],> 5 µM
same,GI50,[5],> 5 µM
same,GI50,[6],> 5 µM
same,GI50,[7],> 5 µM
same,GI50,[8],> 5 µM
same,GI50,[9],> 5 µM
same,GI50,[10],> 5 µM
same,GI50,[11],> 5 µM
same,GI50,[12],> 5 µM
same,GI50,[13],> 5 µM
same,GI50,[14],> 5 µM
same,GI50,[15],> 5 µM
same,GI50,[16],> 5 µM
same,GI50,[17],> 5 µM
same,GI50,[18],> 5 µM
same,GI50,[19],> 5 µM
same,GI50,[20],> 5 µM
same,GI50,[21],> 5 µM
same,GI50,[22],> 5 µM
same,GI50,[23],> 5 µM
same,GI50,[24],2.17 µM
same,GI50,[25],> 5 µM
same,GI50,[26],> 5 µM
same,GI50,[27],0.43 µM
same,GI50,[28],> 5 µM
same,GI50,[29],> 5 µM
same,GI50,[30],1.11 µM
same,GI50,[31],> 5 µM
same,GI50,[32],> 5 µM
same,GI50,[33],> 5 µM
same,GI50,[34],> 5 µM
same,GI50,[35],> 5 µM
same,GI50,[36],> 5 µM
same,GI50,[37],> 5 µM
same,GI50,[38],> 5 µM
same,GI50,[39],> 5 µM
same,GI50,[40],> 5 µM
same,GI50,[41],> 5 µM
same,GI50,[42],> 5 µM
same,GI50,[43],> 5 µM
same,GI50,[44],> 5 µM
same,GI50,[45],> 5 µM
same,GI50,[46],> 5 µM
same,GI50,[47],> 5 µM
same,GI50,[48],> 5 µM
same,GI50,[49],> 5 µM
same,GI50,[50],> 5 µM
same,GI50,[51],> 5 µM
same,Activity,[52],110 Zone units
same,Activity,[53],110 Zone units
same,Activity,[54],40 Zone units
same,Activity,[55],60 Zone units
same,Activity,[56],80 Zone units
same,Activity,[57],100 Zone units
same,Activity,[58],80 Zone units
CC(=O)CC/C=C(\C)CCC1=C(C)CCCC1(C)C,GI50,[59],2.94 µM
same,GI50,[1],2.88 µM
same,GI50,[2],2.08 µM
same,GI50,[60],> 15 µM
same,GI50,[61],4.94 µM
same,GI50,[3],> 15 µM
same,GI50,[4],> 15 µM
same,GI50,[5],> 15 µM
same,GI50,[6],> 15 µM
same,GI50,[7],> 15 µM
same,GI50,[8],> 15 µM
same,GI50,[9],> 15 µM
same,GI50,[10],> 15 µM
same,GI50,[62],> 15 µM
same,GI50,[11],> 15 µM
same,GI50,[12],> 15 µM
same,GI50,[13],> 15 µM
same,GI50,[14],> 15 µM
same,GI50,[15],> 15 µM
same,GI50,[16],8.61 µM
same,GI50,[17],6.34 µM
same,GI50,[19],> 15 µM
same,GI50,[20],> 15 µM
same,GI50,[21],< 0.0015 µM
same,GI50,[22],5.15 µM
same,GI50,[23],> 15 µM
same,GI50,[63],> 15 µM
same,GI50,[25],< 0.0015 µM
same,GI50,[26],> 15 µM
same,GI50,[27],> 15 µM
same,GI50,[28],> 15 µM
same,GI50,[29],> 15 µM
same,GI50,[64],> 15 µM
same,GI50,[30],9.53 µM
same,GI50,[31],> 15 µM
same,GI50,[32],> 15 µM
same,GI50,[33],> 15 µM
same,GI50,[34],> 15 µM
same,GI50,[35],> 15 µM
same,GI50,[36],> 15 µM
same,GI50,[37],> 15 µM
same,GI50,[38],> 15 µM
same,GI50,[39],> 15 µM
same,GI50,[40],> 15 µM
same,GI50,[41],9.48 µM
same,GI50,[43],> 15 µM
same,GI50,[65],> 15 µM
same,GI50,[45],> 15 µM
same,GI50,[46],> 15 µM
same,GI50,[47],> 15 µM
same,GI50,[66],1.86 µM
same,GI50,[48],> 15 µM
same,GI50,[49],> 15 µM
same,GI50,[50],> 15 µM
same,GI50,[51],> 15 µM
same,Activity,[52],60 Zone units
same,Activity,[53],60 Zone units
same,Activity,[54],40 Zone units
same,Activity,[56],0 Zone units
same,Activity,[58],30 Zone units
